Experimental data published in US10682388B2, “Targeting of PELP1 in cancer therapy” (THE BOARD OF REGENTS OF THE UNIVERSITY OF TEXAS SYSTEM, priority 2014, dated 2020).
“Also recorded” adds a separate entry of the source.

Columns and labels:
ZRPELP1 cells = assay: Initial screen, proliferation assay of PELP1-overexpressing breast cancer cells; type: cell-based, Human; settings: peptide every 3 days, absorbance at 7 days, FIG. 1B
Method: FIGS. 1A-D. (FIG. 1A) Diagram for yeast two hybrid screen to identify PELP1 binding peptides. Four regions of PELP1 were tagged with the binding domain and a library of 10^6 random peptides (Clontech) were bound to an activation domain. The number of positive colonies per region of PELP1 are shown in the graph. (FIG. 1B) A proliferation assay was performed with […]1 cells plated in a 96 well plate, treated with peptide every 3 days and absorbance was measured at 7 days. (FIG. 1C) ZR75 were plated in a 6-well plate on coverslips in 8% RPMI and treated with 10 uM FITC labeled peptide for 30, 60, or 120 minutes. They were then fixed with pararformaldehyde, stained for PELP1 (red) and DAPI (blue), and imaged by confocal microscopy to monitor intracellular delivery. (FIG. 1D) ZR75 cells were starved of estrogen for 72 hours and treated with estradiol 10^-7 M for 12 hours. Nuclear lysate was incubated with biotin-tagged peptides bound to avidin beads for one hour. Beads were washed, run on SDS-PAGE gel and probed for PELP1 expression. Input of nuclear lysate is shown as control. Cell proliferation rates were measured by using MTT Cell Viability Assay in 96-well plates. Model cells were seeded in 96-well plates (1×10^3 cells/well) in DMEM or RPMI medium containing 10% serum. After an overnight incubation, cells were treated with varying concentrations of the peptides for 3-7 days and growth inhibition was determined by using traditional MTT assay (Sigma) following manufacturer's instructions.

PELP1-G9a complex = molecular target: T1, PELP1-G9a complex (Homo sapiens, UniProt Q8IZL8); assay: In vitro peptide competition assay, G9a-GST on glutathione beads with purified PELP1; type: binding; settings: peptides 2, 5, 10 μM, 2 hours, FIGS. 2C, 7B, 9
T1 construct: purified bacterial, full-length PELP1; host or cells: bacteria (PELP1)
Method: FIGS. 2A-D. (FIG. 2A) Immunoprecipitation was performed on nuclear lysates obtained from ZRPELP1 cells grown in 5% DCC for 72 hours and treated with estradiol 10^−7 M for 12 hours. PELP1 was immunoprecipitated and western blotting was performed for PELP1 and G9a expression with IgG as the control. (FIG. 2B) Various fragments of PELP1 bound to glutathione beads were incubated with recombinant G9a for 2 hours. Beads were washed, run on an SDS-PAGE gel and immunoblotted for G9a expression. GST tag alone is shown as control. (FIG. 2C) Recombinant G9a-GST was bound to glutathione beads and incubated with purified PELP1 and peptides for 2 hours. Beads were washed and run on SDS-PAGE gel. (FIG. 2D) ZR75 cells were transfected with ERE-luciferase, PELP1 and/or G9a plasmids and treated with peptide for 24 hours and estradiol 10^−7 M for 12 hours. Relative luciferase activity is shown.
FIGS. 7A-E. (FIG. 7A) Bacterial purified PELP1 was incubated with biotin-tagged peptides bound to avidin beads for one hour. Beads were washed, run on SDS-PAGE gel and probed for PELP1 expression. Input of bacterial PELP1 is shown as control. (FIG. 7B) Recombinant G9a-GST was bound to glutathione beads and incubated with purified PELP1 and peptides for 2 hours. Beads were washed and run on SDS-PAGE gel. (+2 μM, ++5 μM, +++10 μM). (FIG. 7C) ZRGST and ZRPELP1GST cells were transfected in triplicate with TopFlash β-catenin reporter and treated with TAT or PIP1 (10 μM) for 24 hours. Relative luciferase activity is shown. (FIG. 7D) MCF7vec and MCF7PELP1 cells were treated with TAT or PIP1 (10 μM) and toxicity was measured by CytoTox-Flour Cytotoxicity Assay. (FIG. 7E) ZR75 and ZR75PELP1 cells were treated with TAT, PIP1 or PIP2 for 24 hours and immunoblotted for PELP1 and ERα expression with actin as the loading control.
FIG. 9. […]
Peptides were linked to EZ-Link NHS-Biotin (Thermo Scientific) per manutfacturer's protocol. […] Beads were washed 3× with IP buffer (20 mM HEPES pH 7.9, 20% glycerol, 0.1% triton-x, 100 mM KCl), eluted with SDS-dye, and PELP1 expression was determined by western blotting. […]

[1] = test system: MDA-MB-231 and MDA-MB-468; assay: MTT proliferation assay, triple negative breast cancer cell lines; type: cell-based; settings: preliminary studies
Method: FIGS. 8A-C. (FIG. 8A) ZR75PELP1KD cells were treated in triplicate with TAT or PIP1 (10, 20, or 50 μM) every 3 days and proliferation was measured by MTT assay on day 7. (FIG. 8B) MCF7PELP1KD cells were treated in triplicate with TAT or PIP1 (10, 20, or 50 μM) every 3 days and proliferation was measured by MTT assay on day 7. (FIG. 8C) MDAMB231 and MDAMB468 cells were treated in triplicate with TAT or PIP1 (10 μM) every 3 days and proliferation was measured by MTT assay on day 7. Cell proliferation rates were measured by using MTT Cell Viability Assay in 96-well plates. Model cells were seeded in 96-well plates (1×10^3 cells/well) in DMEM or RPMI medium containing 10% serum. After an overnight incubation, cells were treated with varying concentrations of the peptides for 3-7 days and growth inhibition was determined by using traditional MTT assay (Sigma) following manufacturer's instructions.

[2] = test system: T98G, LN229 and U251 glioma cells and patient-derived primary GBM cells; assay: MTT proliferation assay, glioma cell lines and primary GBM cells; type: cell-based; settings: FIGS. 15A-D
Method: FIGS. 15A-D. PIPs inhibit proliferation of glioma cells. (FIGS. 15A-B) T98G, LN229 and U251 glioma cells were treated with vehicle or varying concentration of PIP1 or PIP3, and proliferation was measured by using the MTT assay. (FIGS. 15C-D) Patient-derived primary GBM cells were treated with PIP1 or PIP3 and proliferation was measured using the MTT assay. Cell proliferation rates were measured by using MTT Cell Viability Assay in 96-well plates. Model cells were seeded in 96-well plates (1×10^3 cells/well) in DMEM or RPMI medium containing 10% serum. After an overnight incubation, cells were treated with varying concentrations of the peptides for 3-7 days and growth inhibition was determined by using traditional MTT assay (Sigma) following manufacturer's instructions.

[3] = test system: TNBC (MDA-MB-231 and MDA-MB-468) and ER-positive (ZR-75 and MCF-7) breast cancer cell lines; assay: MTT proliferation assay of PIP3, TNBC and ER-positive breast cancer cell lines; type: cell-based; settings: 10 μM and dose response, FIGS. 13A-C
Method: FIGS. 13A-C. […] (FIG. 13A) Breast cancer cells were treated with vehicle or 10 μM PIP3 and proliferation was measured by using the MTT assay. (FIGS. 13B-C) Dose response curves for PIP3. Cell proliferation rates were measured by using MTT Cell Viability Assay in 96-well plates. Model cells were seeded in 96-well plates (1×10^3 cells/well) in DMEM or RPMI medium containing 10% serum. After an overnight incubation, cells were treated with varying concentrations of the peptides for 3-7 days and growth inhibition was determined by using traditional MTT assay (Sigma) following manufacturer's instructions.

[4] = test system: ERE-luciferase in ZRPELP1 cells; assay: ERE-luciferase reporter gene assay in PELP1 overexpressing cells; type: cell-based, Human; settings: peptide 24 hours, estradiol 12 hours, compared to control TAT, FIGS. 4B, 10
Method: (§1) FIGS. 4A-E. (FIG. 4A) ZR75vec, ZR75PELP1, MCF7vec and MCF7PELP1 cells were treated in triplicate with TAT, PIP1 or PIP1 deletions (Del1, Del2, Del3) at 10 uM every 3 days and proliferation was measured by MTT assay on day 7. (FIG. 4B) ZRPELP1 cells were transfected with ERE-luciferase and treated with TAT, PIP1, or PIP2 for 24 hours and with estradiol for 12 hours. Relative luciferase activity was measured in triplicate. (FIG. 4C) ZR75 cells were grown in 5% DCC media for 72 hours, treated with TAT or PIP1 every 3 days, and treated with estradiol 10^−7 M for 12 hours. Proliferation was measured in triplicate on day 7 by MTT assay at 595 nm. (FIG. 4D) MCF7-Letrozole resistant cells were grown in 5% DCC media for 72 hours, treated with TAT, PIP1 or PIP2 every 3 days, and letrozole or estradiol 10^−7 M for 12 hours. Proliferation was measured in triplicate on day 7 by MTT assay at 595 nm. (FIG. 4E) MCF7-Tamoxiefn resistant cells were grown in 5% DCC media for 72 hours, treated with TAT, PIP1 or PIP2 every 3 days, and tamoxifen or estradiol 10^−7 M for 12 hours. Proliferation was measured in triplicate on day 7 by MTT assay at 595 nm.
FIG. 10. ERE-luciferase assay. […]
Model cells were seeded in 6-well plates. […] Luciferase activity was measured by using the luciferase assay system (Promega, Madison, Wis.).

[5] = test system: MCF7-TamR and MCF7-LTLT cells; assay: Therapy resistance assays, MTT; type: cell-based, Human; settings: MCF7-TamR and MCF7-LTLT, 10 μM, FIGS. 4D-E, 11
Method: as §1
FIG. 11. Cell proliferation assay: letrozole-resistant MCF-7-LTLT cells and Tamoxifen resistant MCF7-Tam cells were treated with TAT, PIP1, or PIP2 (10 μM)+/− letrozole or Tamoxifen.
Tamoxifen (Tam) therapy resistant MCF7-TamR and letrozole resistant MCF7-LTLT cells were cultured in tamoxifen or letrozole (10^-7M) containing media in the presence or absence of peptides and proliferation was measured by MTT assay (Sigma) following manufacturer's instructions.

T1 sequence (Q8IZL8 2-1130, one chain of several): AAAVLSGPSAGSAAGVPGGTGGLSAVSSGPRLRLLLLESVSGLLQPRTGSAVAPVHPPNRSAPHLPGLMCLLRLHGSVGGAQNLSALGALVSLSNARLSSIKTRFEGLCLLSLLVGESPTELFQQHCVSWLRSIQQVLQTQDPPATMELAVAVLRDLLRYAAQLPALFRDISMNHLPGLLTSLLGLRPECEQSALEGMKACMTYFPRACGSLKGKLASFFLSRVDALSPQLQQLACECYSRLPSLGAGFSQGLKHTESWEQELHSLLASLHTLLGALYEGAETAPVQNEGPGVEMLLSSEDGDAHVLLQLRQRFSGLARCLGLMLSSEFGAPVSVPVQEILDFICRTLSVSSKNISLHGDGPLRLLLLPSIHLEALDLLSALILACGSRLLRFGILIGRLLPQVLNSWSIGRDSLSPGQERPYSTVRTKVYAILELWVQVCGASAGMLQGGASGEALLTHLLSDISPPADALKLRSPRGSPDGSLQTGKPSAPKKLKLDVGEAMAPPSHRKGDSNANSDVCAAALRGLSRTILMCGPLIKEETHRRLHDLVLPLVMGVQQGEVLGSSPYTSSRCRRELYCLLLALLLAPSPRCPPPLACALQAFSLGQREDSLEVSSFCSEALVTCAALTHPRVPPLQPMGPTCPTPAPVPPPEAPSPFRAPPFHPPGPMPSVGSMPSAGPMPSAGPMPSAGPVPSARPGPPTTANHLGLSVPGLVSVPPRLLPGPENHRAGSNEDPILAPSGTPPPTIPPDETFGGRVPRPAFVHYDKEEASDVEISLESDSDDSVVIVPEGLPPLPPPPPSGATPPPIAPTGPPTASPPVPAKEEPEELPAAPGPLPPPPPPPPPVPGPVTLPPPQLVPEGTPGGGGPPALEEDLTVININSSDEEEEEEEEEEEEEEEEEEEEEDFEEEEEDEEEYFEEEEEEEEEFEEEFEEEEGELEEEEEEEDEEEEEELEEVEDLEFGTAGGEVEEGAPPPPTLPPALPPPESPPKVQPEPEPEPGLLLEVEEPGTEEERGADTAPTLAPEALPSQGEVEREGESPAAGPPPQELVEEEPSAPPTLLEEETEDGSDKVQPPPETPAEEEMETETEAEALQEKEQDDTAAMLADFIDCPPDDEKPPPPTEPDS

GRKKRRQRRRGG [TAT, reference compound] was tested, and the “PELP1-mediated breast cancer cell proliferation” value (ZRPELP1 cells) was “no significant effect” and the “disruption of PELP1 interaction with G9a/EHMT2” value (PELP1-G9a complex) was “no effect”.

For GRKKRRQRRRGGFKEWWRIDMVWLHRVRRNSY [PIP3], the “activity on TNBC cells” value [1] was “has activity in triple negative cells”, the “concentration of potent activity on glioma proliferation” value [2] was 5 to 10 µM and the “proliferation of glioma cell lines and primary GBM cells” value ([2]; varying concentration) was “significantly reduced their proliferation in a dose-dependent manner”. For the same sequence, the “growth of TNBC and ER-positive breast cancer cell lines” value [3] was “inhibited growth; also recorded: inhibits proliferation of breast cancer cells”.

In the case of GRKKRRQRRRGGIMGRGLCMRGVVRGRGRN [PIP2], the “PELP1-mediated breast cancer cell proliferation” value (ZRPELP1 cells) is reported as “significantly inhibit PELP1-mediated proliferation”, the “ERE activation (ERE-luciferase)” value [4] is reported as “significantly decreased ERE activation” and the “disruption of PELP1 interaction with G9a/EHMT2” value (PELP1-G9a complex) is reported as “disrupted by the addition of either of the two peptides in a dose-dependent manner”. The “proliferation of therapy resistant cell lines” value [5] was “inhibited the proliferation; also recorded: efficiently reduce the growth of therapy resistant cells”.
